Reference: article PMC12022975, “NMR^2-Based Drug Discovery Pipeline Presented on the Oncogenic Protein KRAS” (Journal of the American Chemical Society, 2025)
Like-named read-outs stand apart in the source and are kept apart here.

What was measured:
KRAS G12V GMP-PNP [1] = molecular target: T1, KRAS G12V GMP-PNP (Homo sapiens, UniProt P01116, G12V); experiment: Ligand-titrated [15N,1H]-HSQC affinity determination (TITAN line shape analysis); format: binding
T1 construct: His-tag (TEV-cleavable) (cleaved yes); made in house; host or cells: E. coli BL21* DE3
Experimental: A detailed summary for each ligand can be found in the Supporting Information. The NMR data were processed with nmrpipe, and the affinity was analyzed with TITAN.[29]
The amide signals of L6, V7, T74, and G75 were analyzed using the line shape analysis software TITAN.[29] Additionally, the chemical shift perturbation binding curve was analyzed.
MHz spectrometer equipped with a cryoprobe and SampleJet.
4, 5, 9: [15N, 1H]-sofastHSQC experiments were done on a Bruker Ascend console NEO 500 MHz with a prodigy probe head
titrated to ~100 µM KRAS.
spectrometer equipped with a cryoprobe.
Table SI1: Summary of all [1H, 1H] - NOESY spectra measured for all compounds which a NMR2
(1H) [MS] (1H) [MS] [MS] TIME [MS] [MHZ] TIME PER NOESY [H]

KRAS G12V GMP-PNP [2] = molecular target: T1, KRAS G12V GMP-PNP; experiment: STD-NMR screening of the DSI-poised fragment library; format: binding; conditions: STD-NMR hit mark; mixtures of six, 600 μM per ligand, 12 μM KRAS; hit if S/N ratio greater than 5
Experimental: The STD-NMR and [^15N,^1H]-HSQC screening of the DSI-poised fragment library was performed on a Bruker Avance III HD 600 MHz spectrometer equipped with a cryoprobe and SampleJet. […] Analysis was performed in TopSpin 4.1 and CcpNMR 3.1.[28]
The DSI-poised fragment library comprises 890 molecules, designed such that analogues are readily accessible on the market and can be quickly synthesized.

[3] = TITAN analysis of L6, V7, T74, G75 amide signals, no saturation reached, interpret with caution, read-out: KD

Row | Kd (KRAS G12V GMP-PNP [1]; [3]) | STD (KRAS G12V GMP-PNP [2]) | Compound | Kd (KRAS G12V GMP-PNP [1])
1 | 5.2 mM | √ | Cc1[nH]ncc1CNc1ccccc1F [fragment 5, Cc1n[nH]cc1CNc(cccc1)c1F] | –
2 | 3.2 mM | – | Cc1cc2cc[nH]c2cc1C [compound 14] | –
3 | 5.9 mM | √ | Nc1ccc(S(=O)(=O)Nc2ccccc2)cc1 [compound 7] | –
4 | 3.3 mM | √ | CNCc1cnn(-c2ccccc2)c1 [compound 9] | –
5 | 1.2 mM | √ | c1coc(CNc2nc3ccccc3[nH]2)c1 [fragment 1, C(c1ccco1)Nc1nc(cccc2)c2[nH]1] | –
6 | 4.5 mM | – | O=C(O)/C=C/c1c[nH]c2ccccc12 [compound 16] | –
7 | 10 mM | √ | N=c1sccn1CC(=O)Nc1ccc(F)cc1 [compound 4] | –
8 | 15 mM | √ | COc1ccc(C)cc1NC(=O)Nn1cnnc1 [compound 6] | –
9 | – | √ | O=C(CN1CCCC1)Nc1cccc(Cl)c1 [compound 12] | –
10 | – | √ | CS(=O)(=O)Cc1nc2ccccc2[nH]1 [compound 11] | –

Row | Compound | Kd (KRAS G12V GMP-PNP [1]; [3]) | STD (KRAS G12V GMP-PNP [2]) | Kd (KRAS G12V GMP-PNP [1])
11 | COc1ccc2sc(N)nc2c1 [compound 10] | – | √ | 5.9 mM
12 | COc1ccc2[nH]cc(CN(C)C)c2c1 [compound 13] | – | √ | –
